Measured values as given in US20240400577A1, “MODULATORS OF PROTEIN KINASES” (VIBLIOME THERAPEUTICS, LLC, priority 2021, published 2024).

Key:
Assay in all cases: Kinase panel enzymatic inhibition assay (Nanosyn)
Format in all cases: biochemical
Conditions in all cases: compound 5 μM; ATP at Km; 30-minute pre-incubation
[1] = biological target: T1, SGK3 (Homo sapiens, UniProt Q96BR1)
T1 construct: Nanosyn (contract laboratory that ran the panel)
T1 sequence (Q96BR1 1-496): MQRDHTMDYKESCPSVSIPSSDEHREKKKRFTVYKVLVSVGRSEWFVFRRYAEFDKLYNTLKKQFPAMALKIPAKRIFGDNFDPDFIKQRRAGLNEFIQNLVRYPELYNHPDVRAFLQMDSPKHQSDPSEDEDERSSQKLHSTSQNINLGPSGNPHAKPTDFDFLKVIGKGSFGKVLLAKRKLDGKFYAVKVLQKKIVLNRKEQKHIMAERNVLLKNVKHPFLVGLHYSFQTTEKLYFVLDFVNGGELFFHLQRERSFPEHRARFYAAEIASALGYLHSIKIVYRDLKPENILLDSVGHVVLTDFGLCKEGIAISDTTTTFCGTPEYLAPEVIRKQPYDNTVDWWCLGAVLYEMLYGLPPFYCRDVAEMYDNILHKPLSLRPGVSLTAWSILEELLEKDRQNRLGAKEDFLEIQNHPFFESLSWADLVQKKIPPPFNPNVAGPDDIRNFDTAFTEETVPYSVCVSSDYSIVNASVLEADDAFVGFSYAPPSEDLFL
Outline: (§1)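 Read-out is percent inhibition or IC50, obtained by mobility shift, ADP detection or time-resolved fluorescence detection. Each kinase was run with ATP at its Km, and compound at 5 μM was pre-incubated for 30 minutes.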

[2] = biological target: T2, YES (Homo sapiens, UniProt P07947)
T2 construct: Nanosyn (contract laboratory that ran the panel)
T2 sequence (P07947 whole entry): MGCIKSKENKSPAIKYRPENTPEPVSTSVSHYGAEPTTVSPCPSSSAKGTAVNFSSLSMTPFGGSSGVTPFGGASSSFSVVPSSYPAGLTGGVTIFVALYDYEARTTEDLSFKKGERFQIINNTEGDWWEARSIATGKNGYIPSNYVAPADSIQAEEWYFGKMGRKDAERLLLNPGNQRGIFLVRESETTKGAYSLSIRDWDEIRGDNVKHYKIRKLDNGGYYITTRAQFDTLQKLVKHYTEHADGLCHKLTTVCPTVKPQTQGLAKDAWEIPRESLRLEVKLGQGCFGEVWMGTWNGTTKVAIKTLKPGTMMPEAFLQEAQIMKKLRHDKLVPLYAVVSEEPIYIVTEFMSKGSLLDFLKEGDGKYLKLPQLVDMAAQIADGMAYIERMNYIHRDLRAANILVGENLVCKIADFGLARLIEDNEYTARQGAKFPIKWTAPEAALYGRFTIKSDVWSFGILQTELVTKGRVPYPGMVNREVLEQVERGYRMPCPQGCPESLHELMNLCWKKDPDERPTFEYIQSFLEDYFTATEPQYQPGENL
Outline: as §1

[3] = biological target: T3, LYNa (Homo sapiens, UniProt P07948)
T3 construct: purchased Nanosyn (contract screening)
T3 sequence (P07948 whole entry): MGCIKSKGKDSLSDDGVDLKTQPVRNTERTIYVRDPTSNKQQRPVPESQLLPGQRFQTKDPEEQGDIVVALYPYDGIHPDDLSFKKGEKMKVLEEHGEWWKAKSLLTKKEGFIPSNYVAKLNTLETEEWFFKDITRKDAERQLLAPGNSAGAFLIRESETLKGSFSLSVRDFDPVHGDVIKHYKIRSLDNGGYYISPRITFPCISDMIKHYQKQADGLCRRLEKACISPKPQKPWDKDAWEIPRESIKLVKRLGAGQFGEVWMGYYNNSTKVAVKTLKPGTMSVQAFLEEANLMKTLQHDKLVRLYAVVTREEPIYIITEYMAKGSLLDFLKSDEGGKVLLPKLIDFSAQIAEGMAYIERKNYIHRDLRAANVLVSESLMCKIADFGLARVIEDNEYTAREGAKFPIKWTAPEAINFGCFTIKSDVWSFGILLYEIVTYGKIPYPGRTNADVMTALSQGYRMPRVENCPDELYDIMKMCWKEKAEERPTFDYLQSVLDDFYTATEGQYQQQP
Outline: as §1

[4] = biological target: T4, KIT (Homo sapiens, UniProt P10721)
T4 construct: purchased Nanosyn (contract screening)
T4 sequence (P10721 26-976): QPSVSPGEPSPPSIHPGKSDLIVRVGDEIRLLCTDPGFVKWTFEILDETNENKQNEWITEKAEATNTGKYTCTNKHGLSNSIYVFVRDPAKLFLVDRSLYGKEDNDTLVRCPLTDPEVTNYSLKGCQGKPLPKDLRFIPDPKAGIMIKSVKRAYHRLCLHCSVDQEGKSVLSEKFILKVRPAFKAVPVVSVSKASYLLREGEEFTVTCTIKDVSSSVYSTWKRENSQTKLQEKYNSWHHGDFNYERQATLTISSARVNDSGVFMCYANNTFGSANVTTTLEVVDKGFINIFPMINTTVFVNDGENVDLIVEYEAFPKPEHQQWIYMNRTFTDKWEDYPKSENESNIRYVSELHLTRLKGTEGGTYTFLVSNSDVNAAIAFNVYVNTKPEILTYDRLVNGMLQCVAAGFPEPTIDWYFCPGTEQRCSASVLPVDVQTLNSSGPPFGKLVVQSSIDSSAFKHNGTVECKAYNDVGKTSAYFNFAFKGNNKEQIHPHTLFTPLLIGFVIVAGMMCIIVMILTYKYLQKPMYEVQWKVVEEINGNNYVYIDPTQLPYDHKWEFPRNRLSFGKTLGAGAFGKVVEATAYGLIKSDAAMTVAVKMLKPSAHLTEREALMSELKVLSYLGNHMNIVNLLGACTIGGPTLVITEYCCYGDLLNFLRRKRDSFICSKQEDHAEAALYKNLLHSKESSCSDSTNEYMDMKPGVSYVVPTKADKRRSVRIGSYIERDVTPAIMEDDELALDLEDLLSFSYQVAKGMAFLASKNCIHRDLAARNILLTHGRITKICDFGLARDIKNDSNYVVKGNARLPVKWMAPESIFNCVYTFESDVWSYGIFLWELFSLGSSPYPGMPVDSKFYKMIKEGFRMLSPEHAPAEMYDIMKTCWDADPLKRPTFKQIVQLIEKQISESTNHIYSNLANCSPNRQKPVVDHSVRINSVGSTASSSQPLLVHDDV
Outline: as §1

[5] = biological target: T5, p38b (Homo sapiens, UniProt Q15759)
T5 construct: Nanosyn (contract laboratory that ran the panel)
T5 sequence (Q15759 whole entry): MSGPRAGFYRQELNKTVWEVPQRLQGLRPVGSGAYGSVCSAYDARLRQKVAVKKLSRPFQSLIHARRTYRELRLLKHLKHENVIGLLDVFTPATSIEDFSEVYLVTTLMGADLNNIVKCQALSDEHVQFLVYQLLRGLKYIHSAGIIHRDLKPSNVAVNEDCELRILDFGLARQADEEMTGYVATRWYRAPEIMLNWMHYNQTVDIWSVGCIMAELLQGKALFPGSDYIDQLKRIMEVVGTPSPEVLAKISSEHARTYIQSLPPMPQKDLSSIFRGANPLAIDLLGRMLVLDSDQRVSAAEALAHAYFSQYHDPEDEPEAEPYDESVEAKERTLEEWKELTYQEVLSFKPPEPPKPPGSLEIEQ
Outline: as §1

[6] = biological target: T6, FGR (Homo sapiens, UniProt P09769)
T6 construct: purchased Nanosyn (contract screening)
T6 sequence (P09769 whole entry): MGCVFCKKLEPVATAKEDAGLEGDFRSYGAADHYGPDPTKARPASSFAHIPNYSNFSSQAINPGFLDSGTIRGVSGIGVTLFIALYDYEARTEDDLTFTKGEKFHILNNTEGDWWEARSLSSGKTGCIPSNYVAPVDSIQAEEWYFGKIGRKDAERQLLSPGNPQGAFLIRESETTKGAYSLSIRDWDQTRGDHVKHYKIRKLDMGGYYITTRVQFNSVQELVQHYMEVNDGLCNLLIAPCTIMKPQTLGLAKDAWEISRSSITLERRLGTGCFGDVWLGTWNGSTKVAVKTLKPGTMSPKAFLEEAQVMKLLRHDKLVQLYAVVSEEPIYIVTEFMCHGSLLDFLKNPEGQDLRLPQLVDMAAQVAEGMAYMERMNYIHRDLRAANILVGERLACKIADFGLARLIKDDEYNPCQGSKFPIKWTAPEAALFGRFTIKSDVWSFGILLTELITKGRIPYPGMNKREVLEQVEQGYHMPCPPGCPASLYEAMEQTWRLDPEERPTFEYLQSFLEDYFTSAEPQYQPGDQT
Outline: as §1

[7] = biological target: T7, MNK2 (Homo sapiens, UniProt Q9HBH9)
T7 construct: Nanosyn (contract laboratory that ran the panel)
T7 sequence (Q9HBH9 whole entry): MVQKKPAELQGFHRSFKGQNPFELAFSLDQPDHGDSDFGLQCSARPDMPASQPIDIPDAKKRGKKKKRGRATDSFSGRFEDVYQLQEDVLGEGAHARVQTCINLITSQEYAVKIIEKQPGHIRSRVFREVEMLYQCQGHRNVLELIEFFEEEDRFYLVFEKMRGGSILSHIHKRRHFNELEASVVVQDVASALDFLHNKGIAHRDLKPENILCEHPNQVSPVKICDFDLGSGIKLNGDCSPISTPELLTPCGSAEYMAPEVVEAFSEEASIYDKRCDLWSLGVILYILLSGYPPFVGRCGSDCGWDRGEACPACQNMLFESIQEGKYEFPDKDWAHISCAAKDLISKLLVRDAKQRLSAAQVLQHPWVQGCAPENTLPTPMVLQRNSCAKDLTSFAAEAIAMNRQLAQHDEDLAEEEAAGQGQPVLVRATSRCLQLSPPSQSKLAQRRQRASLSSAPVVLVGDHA
Outline: as §1

[8] = biological target: T8, SPHK2 (Homo sapiens, UniProt Q9NRA0)
T8 construct: Nanosyn (contract laboratory that ran the panel)
T8 sequence (Q9NRA0 1-654): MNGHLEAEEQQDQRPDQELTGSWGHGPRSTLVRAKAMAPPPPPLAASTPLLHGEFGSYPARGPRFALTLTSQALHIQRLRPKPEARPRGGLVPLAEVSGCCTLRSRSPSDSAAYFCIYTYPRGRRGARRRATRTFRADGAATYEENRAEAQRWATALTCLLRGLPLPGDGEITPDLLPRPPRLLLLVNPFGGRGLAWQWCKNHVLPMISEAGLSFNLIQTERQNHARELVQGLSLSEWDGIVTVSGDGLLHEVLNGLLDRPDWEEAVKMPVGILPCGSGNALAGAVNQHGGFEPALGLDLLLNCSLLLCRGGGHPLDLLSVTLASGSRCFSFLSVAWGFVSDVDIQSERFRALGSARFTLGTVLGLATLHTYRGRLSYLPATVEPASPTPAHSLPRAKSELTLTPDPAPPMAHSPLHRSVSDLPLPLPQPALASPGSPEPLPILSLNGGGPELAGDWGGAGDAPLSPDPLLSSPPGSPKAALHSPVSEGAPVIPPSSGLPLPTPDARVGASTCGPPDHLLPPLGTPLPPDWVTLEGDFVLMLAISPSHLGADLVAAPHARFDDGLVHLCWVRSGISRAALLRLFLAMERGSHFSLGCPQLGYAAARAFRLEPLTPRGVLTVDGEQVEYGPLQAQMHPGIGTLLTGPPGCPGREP
Outline: as §1

[9] = biological target: T9, Abl1 (Homo sapiens, UniProt P00519)
T9 construct: purchased Nanosyn (contract screening)
Outline: as §1

[10] = biological target: T10, BRAF (Homo sapiens, UniProt P15056)
T10 construct: purchased Nanosyn (contract screening)
T10 sequence (P15056 whole entry): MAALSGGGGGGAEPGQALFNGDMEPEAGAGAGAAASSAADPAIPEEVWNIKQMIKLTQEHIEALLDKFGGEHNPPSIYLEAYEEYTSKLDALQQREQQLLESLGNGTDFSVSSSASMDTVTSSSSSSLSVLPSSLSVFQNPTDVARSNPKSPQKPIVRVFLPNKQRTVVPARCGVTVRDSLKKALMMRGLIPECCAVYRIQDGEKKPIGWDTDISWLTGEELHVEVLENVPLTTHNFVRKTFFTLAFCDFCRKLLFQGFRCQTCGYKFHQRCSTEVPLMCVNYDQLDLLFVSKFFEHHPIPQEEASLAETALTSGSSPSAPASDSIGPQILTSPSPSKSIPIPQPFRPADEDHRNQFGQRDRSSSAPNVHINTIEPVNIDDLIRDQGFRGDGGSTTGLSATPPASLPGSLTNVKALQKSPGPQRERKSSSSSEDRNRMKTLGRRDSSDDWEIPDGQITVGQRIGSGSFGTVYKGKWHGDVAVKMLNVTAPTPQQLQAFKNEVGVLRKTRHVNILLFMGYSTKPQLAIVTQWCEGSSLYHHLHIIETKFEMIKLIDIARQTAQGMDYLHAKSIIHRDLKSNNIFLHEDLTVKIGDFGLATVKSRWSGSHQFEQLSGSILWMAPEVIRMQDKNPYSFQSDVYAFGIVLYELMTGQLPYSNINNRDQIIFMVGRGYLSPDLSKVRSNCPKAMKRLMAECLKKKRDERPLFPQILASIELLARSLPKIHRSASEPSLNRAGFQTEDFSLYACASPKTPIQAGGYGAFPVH
Outline: as §1

[11] = biological target: T11, CSF1R (Homo sapiens, UniProt P07333)
T11 construct: purchased Nanosyn (contract screening)
Outline: as §1

[12] = biological target: T12, DDR1 (Homo sapiens, UniProt Q08345)
T12 construct: purchased Nanosyn (contract screening)
T12 sequence (Q08345 19-913): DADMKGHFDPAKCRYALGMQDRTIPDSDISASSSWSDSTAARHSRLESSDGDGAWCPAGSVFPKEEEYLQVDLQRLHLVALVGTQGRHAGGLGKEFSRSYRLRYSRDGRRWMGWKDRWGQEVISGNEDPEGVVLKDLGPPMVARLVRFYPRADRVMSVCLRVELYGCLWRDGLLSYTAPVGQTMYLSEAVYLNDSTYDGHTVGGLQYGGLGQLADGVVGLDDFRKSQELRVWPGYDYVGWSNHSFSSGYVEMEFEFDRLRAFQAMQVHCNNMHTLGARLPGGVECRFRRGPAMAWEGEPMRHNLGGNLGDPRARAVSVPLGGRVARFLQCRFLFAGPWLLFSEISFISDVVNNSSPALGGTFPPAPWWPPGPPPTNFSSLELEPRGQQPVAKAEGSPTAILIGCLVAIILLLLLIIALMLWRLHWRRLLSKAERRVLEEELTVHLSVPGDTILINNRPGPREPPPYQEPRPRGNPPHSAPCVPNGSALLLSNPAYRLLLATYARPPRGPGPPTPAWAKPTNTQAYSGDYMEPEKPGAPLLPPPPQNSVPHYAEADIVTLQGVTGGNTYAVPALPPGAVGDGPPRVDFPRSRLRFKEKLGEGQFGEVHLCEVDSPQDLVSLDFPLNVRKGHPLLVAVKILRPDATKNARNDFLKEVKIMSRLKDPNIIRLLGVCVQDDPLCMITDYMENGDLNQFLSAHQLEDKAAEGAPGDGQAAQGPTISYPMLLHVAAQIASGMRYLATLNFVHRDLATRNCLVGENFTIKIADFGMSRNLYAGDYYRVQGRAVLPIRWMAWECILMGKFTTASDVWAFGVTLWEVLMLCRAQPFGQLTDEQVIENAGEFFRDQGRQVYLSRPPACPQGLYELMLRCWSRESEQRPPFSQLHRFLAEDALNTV
Outline: as §1

Cc1ccc(NC(=O)c2cc(S(C)(=O)=O)n(-c3ccc(F)cc3)n2)cc1Nc1nccc(-c2cccnc2N)n1 [Ex13, N-(3-((4-(2-aminopyridin-3-yl)pyrimidin-2-yl)amino)-4-methylphenyl)-1-(4-fluorophenyl)-5-(methylsulfonyl)-1H-pyrazole-3-carboxamide] gave an inhibition at 5 µM [1] of under 79%, an inhibition at 5 µM [2] of under 79% and an inhibition at 5 µM [3] of at least 95%. For the same molecule, the inhibition at 5 µM [4] was at least 95%, the inhibition at 5 µM [5] was under 79% and the inhibition at 5 µM [6] was under 79%. For the same molecule, the inhibition at 5 µM [7] was under 79%, the inhibition at 5 µM [8] was 80 to 89% and the inhibition at 5 µM [9] was at least 95%. For the same molecule, the inhibition at 5 µM [10] was at least 95%, the inhibition at 5 µM [11] was at least 95% and the inhibition at 5 µM [12] was at least 95%.

Molecule Cc1ccc(NC(=O)c2cc(S(C)(=O)=O)n(-c3ccc(F)cc3)n2)cc1C#Cc1cnc2cccnn12 [Ex14, 1-(4-fluorophenyl)-N-(3-(imidazo[1,2-b]pyridazin-3-ylethynyl)-4-methylphenyl)-5-(methylsulfonyl)-1H-pyrazole-3-carboxamide] has an inhibition at 5 µM [1] of under 79%, an inhibition at 5 µM [2] of under 79% and an inhibition at 5 µM [3] of at least 95%. It also gave an inhibition at 5 µM [4] of 90 to 94%, an inhibition at 5 µM [5] of under 79% and an inhibition at 5 µM [6] of 80 to 89%. The inhibition at 5 µM [7] was under 79%, the inhibition at 5 µM [8] was under 79% and the inhibition at 5 µM [9] was under 79%. It also gave an inhibition at 5 µM [10] of at least 95%, an inhibition at 5 µM [11] of 90 to 94% and an inhibition at 5 µM [12] of at least 95%.

CCOC(=O)Nc1cn2nc(Nc3cc(NC(=O)c4cc(S(C)(=O)=O)n(-c5ccc(F)cc5)n4)ccc3C)ccc2n1 [Ex15, ethyl (6-((5-(1-(4-fluorophenyl)-5-(methylsulfonyl)-1H-pyrazole-3-carboxamido)-2-methylphenyl)amino)imidazo[1,2-b]pyridazin-2-yl)carbamate] showed an inhibition at 5 µM [1] of under 79%, an inhibition at 5 µM [2] of at least 95% and an inhibition at 5 µM [3] of at least 95%. The inhibition at 5 µM [4] was at least 95%, the inhibition at 5 µM [5] was 80 to 89% and the inhibition at 5 µM [6] was 80 to 89%. It also gave an inhibition at 5 µM [7] of under 79%, an inhibition at 5 µM [8] of under 79% and an inhibition at 5 µM [9] of at least 95%. For the same molecule, the inhibition at 5 µM [10] was at least 95%, the inhibition at 5 µM [11] was at least 95% and the inhibition at 5 µM [12] was at least 95%.

In the case of CNC(=O)c1cc(Oc2ccc(NC(=O)c3cc(S(C)(=O)=O)n(-c4ccc(F)cc4)n3)c(F)c2)ccn1 [Ex17, 4-(3-fluoro-4-(1-(4-fluorophenyl)-5-(methylsulfonyl)-1H-pyrazole-3-carboxamido)phenoxy)-N-methylpicolinamide], the inhibition at 5 µM [1] is reported as under 79%, the inhibition at 5 µM [2] is reported as under 79% and the inhibition at 5 µM [3] is reported as under 79%. It also gave an inhibition at 5 µM [4] of under 79%, an inhibition at 5 µM [5] of under 79% and an inhibition at 5 µM [6] of under 79%. The inhibition at 5 µM [7] was under 79%, the inhibition at 5 µM [8] was under 79% and the inhibition at 5 µM [9] was under 79%. For the same molecule, the inhibition at 5 µM [10] was under 79%, the inhibition at 5 µM [11] was under 79% and the inhibition at 5 µM [12] was 80 to 89%.

CCOC(=O)Nc1cn2nc(Nc3cc(NC(=O)c4cc([S+](C)[O-])n(-c5ccc(F)cc5)n4)ccc3C)ccc2n1 (stereo not drawn) [Ex18, ethyl (6-((5-(1-(4-fluorophenyl)-5-(methylsulfinyl)-1H-pyrazole-3-carboxamido)-2-methylphenyl)amino)imidazo[1,2-b]pyridazin-2-yl)carbamate] was tested, and the inhibition at 5 µM [1] was under 79%, the inhibition at 5 µM [2] was 90 to 94% and the inhibition at 5 µM [3] was at least 95%. It also gave an inhibition at 5 µM [4] of 80 to 89%, an inhibition at 5 µM [5] of 80 to 89% and an inhibition at 5 µM [6] of 80 to 89%. It also gave an inhibition at 5 µM [7] of under 79%, an inhibition at 5 µM [8] of 80 to 89% and an inhibition at 5 µM [9] of at least 95%. For the same molecule, the inhibition at 5 µM [10] was 90 to 94%, the inhibition at 5 µM [11] was 80 to 89% and the inhibition at 5 µM [12] was at least 95%.
